Here are results for 8 compounds from PubChem BioAssay (NCI).

Common to all, as to experiment: growth of human tumour cells (NCI), 48 h
The test system of assay [1] is HCC-2998 colon.
The test system of assay [2] is SK-MEL-2 melanoma.
The test system of assay [3] is M14 melanoma.
The test system of assay [4] is MDA-N.
Assay [5] concerns MALME-3M melanoma.
Assay [6] deals with A549 NSCLC.
In assay [7] the test system is KM12 colon.
Assay [8] concerns MDA-MB-231 breast.
In assay [9] the test system is SNB-75 CNS.
Assay [10] concerns DU-145 prostate.
The test system of assay [11] is OVCAR-5 ovarian.
The subject of assay [12] is COLO 205 colon.
In assay [13] the test system is HOP-92 NSCLC.
Assay [14] concerns HL-60(TB) leukemia.
Assay [15] relates to HCT-116 colon.
Assay [16] concerns NCI-H226 lung.
The test system of assay [17] is HS 578T breast.
Assay [18] concerns SR leukemia.
Assay [19] deals with BT-549 breast.

Structures are written as SMILES.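 Exposure lasted 48 hours, with cells grown in 96-well plates and compounds tested at five concentrations. TGI marks complete inhibition of growth.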 Where only a bound is given, the exact number is not on record here.

For the compound `CCc1cc2c(cc1C(=O)CCC(=O)O)CC1(C2)Cc2cc(CC)c(C(=O)CCC(=O)O)cc2C1`, the TGI in assay [1], in [2], in assay [3], in [4], in assay [5] and in assay [6] was over 100 µM each time. The TGI in [7], in assay [8], in assay [9], in assay [10], in [11] and in assay [12] was over 100 µM throughout. In addition, the TGI in assay [13], in assay [14], in assay [15], in [16] and in assay [17] was over 100 µM throughout.

Consider `C[C@@H](c1ccccc1)N1C[C@@H](c2ccc3c(c2)OCO3)[C@@H]2C(=O)CCC[C@@H]21`, for which the TGI in [1] is 76.7 µM; in [2] it was 94.8 µM; in [3] it was 36.9 µM; in assay [4], over 100 µM; in [5] it was 87.5 µM; in assay [6] it was over 100 µM. In addition, the TGI in assay [7], in [18], in assay [8], in [9], in assay [10] and in assay [11] was over 100 µM in each case. Further, the TGI in assay [12] is 42.4 µM; in [13], over 100 µM; in [14] it was over 100 µM; in assay [15] it was over 100 µM; in assay [16], over 100 µM; in assay [17], over 100 µM.

For `CCSC1=N/C(=C\c2ccco2)C(Nc2ccc(C)cc2)=N1`, the TGI in [2], in assay [3], in assay [4], in [5], in assay [6] and in [7] was over 100 µM in each case. In addition, the TGI in assay [18], in [8], in assay [9], in assay [10], in [11] and in assay [12] was over 100 µM throughout. The TGI in assay [13], in [15], in [16] and in assay [17] was over 100 µM in each case.

Consider `CC12CP(=O)(O)CC1C2(Cl)Cl` (stereo not given), for which the TGI in assay [1], in assay [2], in [3], in assay [5], in assay [6] and in assay [7] was over 100 µM throughout. The TGI in [18], in assay [8], in assay [9], in assay [10], in [11] and in [19] was over 100 µM each time. Moreover, the TGI in [12], in assay [13], in assay [14], in assay [15], in [16] and in [17] was over 100 µM each time.

As for `CCOC(=O)c1ccc(NCc2ccc3nc(OC)c(OC)nc3c2)cc1`, the TGI in assay [1], in [2], in assay [3], in assay [4], in assay [5] and in assay [6] was over 100 µM each time. For the same compound, the TGI in assay [7], in assay [18], in assay [8], in [9], in [10] and in assay [11] was over 100 µM each time. Moreover, the TGI in assay [12], in assay [13], in assay [14], in [15] and in [16] was over 100 µM throughout.

For the compound `C[C@H](CCC(=O)O)[C@H]1CC[C@H]2[C@@H]3[C@@H](O)C[C@@H]4C[C@H](O)CC[C@]4(C)[C@H]3C[C@H](O)[C@]12C`, the TGI in assay [1], in [2], in assay [3], in assay [4], in assay [5] and in [6] was over 100 µM each time. The TGI in [7], in [18], in assay [8], in assay [9], in [10] and in [11] was over 100 µM throughout. For the same compound, the TGI in [12], in [13], in [14], in assay [15], in [16] and in assay [17] was over 100 µM in each case.

As to `COC(=O)C(/C(=N/N)C(=O)Nc1cc(Cl)ccc1Cl)c1nc2ccc([N+](=O)[O-])cc2[nH]c1=O` (stereo not given), the TGI in [1], in [2], in assay [3], in assay [5], in assay [6] and in assay [7] was over 100 µM throughout. The TGI in assay [18], in [11], in assay [12], in [13], in assay [14] and in assay [15] was over 100 µM throughout. In assay [16], this compound yielded a TGI of over 100 µM.

As for `N#CC12CC(C=O)=C(N)C1(C#N)CC(C=O)=C2N` (stereo not given), the TGI in [1] was 80 µM; in [2], 76.3 µM; in assay [3], over 100 µM; in assay [4], over 100 µM; in assay [5], over 100 µM; in assay [6], over 100 µM. The TGI in assay [7], in [18], in [8], in assay [9], in assay [10] and in assay [11] was over 100 µM throughout. The TGI in assay [12], in assay [13], in assay [14], in [15], in assay [16] and in [17] was over 100 µM in each case.
